# Assay results taken from patent US11529511B2, “Using alternating electric fields to increase cell membrane permeability” (The Board of Trustees of the Leland Stanford Junior …, priority 2018, dated 2022).
# Legend:
# [1] = system: MCF-7 cells, mitoxantrone resistant; assay: Intracellular accumulation of mitoxantrone under alternating electric fields; format: cell-based, human; conditions: 2 μM, 1 h; 150 kHz, 1.62 V/cm vs. no field
# Protocol: (§1) The intracellular accumulation of mitoxantrone was then measured.
# MCF-7 cells, wild type = assay: as above; format: cell-based, human; conditions: 2 μM, 1 h; 150 kHz, 1.62 V/cm vs. no field
# Protocol: as §1
# pcGBM2/GFP-Luc cells = conditions: TTFields for 3 days vs. no TTFields
# U87-MG/GFP-Luc cells = assay: Drug sensitivity and synergy with TTFields; format: cell-based, human; conditions: TTFields for 3 days vs. no TTFields
# GBM39 cells = assay: Drug sensitivity with TTFields; format: cell-based, human; conditions: TTFields for 3 days vs. no TTFields
# GBM39/Luc cells = assay: Drug sensitivity and synergy with TTFields; format: cell-based, human; conditions: TTFields for 3 days vs. no TTFields
# human glioblastoma cells = assay: Growth inhibition by TTFields in conjunction with Withaferin A; format: cell-based
# Excerpt: In this figure, 5-ALA=5-aminolevulinic acid; Ethidium D=ethidium bromide; and FITC=fluorescein isothiocyanate.
# U87-MG/eGFP-fLuc cells [2] = assay: Annexin-V-APC binding (apoptosis) by fluorescence microscopy; format: cell-based, human; conditions: 21 μM, TTFields-unexposed
# Protocol: To test if the imposition of TTFields affects cell membrane properties, and thus membrane permeability, the effect of TTFields on the behavior of fluorescently tagged reagents that bind to the cellular membrane was determined. Initially, the impact of TTFields on the binding of Annexin-V-APC to the membrane of U87-MG/eGFP-fLuc cells was measured. Annexin-V-APC binding is a signature of early apoptosis which is characterized by ruffling of the membrane.
# MDA-MB-235 cells = assay: Drug sensitivity and synergy with TTFields; format: cell-based; conditions: TTFields for 3 days vs. no TTFields
# MES-SA cells = assay: Intracellular accumulation of doxorubicin under 150 kHz alternating electric fields; format: cell-based; conditions: 10 μM, 1 h, 1.62 V/cm RMS, 24 hours vs. no field
# [3] = system: MDA-MB-435 cells, doxorubicin resistant; assay: Intracellular accumulation of doxorubicin under alternating electric fields; format: cell-based, human; conditions: 10 μM, 1 h; 150 kHz, 1.62 V/cm vs. no field
# [4] = system: MDA-MB-435 cells, wild type; assay: as above; format: cell-based, human; conditions: 10 μM, 1 h; 150 kHz, 1.62 V/cm vs. no field
# glioblastoma patients = assay: Survival of glioblastoma patients, TTFields plus temozolomide vs. temozolomide alone; format: in vivo, human; conditions: after 1 year of TTFields exposure
# Excerpt: The treatment of glioblastoma (GBM) using alternating electric fields is a novel, validated therapy that has become an additional modality (after surgery chemoradiation and chemotherapy) for anti-cancer treatments. Intermediate frequency alternating electric fields (100-500 kHz) have been studied in detail. […] In the context of treating tumors, alternating electric fields at these frequencies are often referred to as “tumor treating fields” or “TTFields.”
# Recurrence of GBM is inevitable and the median time to first recurrence despite standard therapy is approximately 7 months. […] TTFields compliance (≥75% vs. <75%) was an independent predictor of overall survival in the retrospective analysis of the full EF-14 trial dataset and the duration of use of TTFields was also found to affect overall survival. […] Namely, a correlation between the length of TTFields exposure and the duration of its effect on cell membrane permeability after cessation of TTFields was observed. At lengths of TTFields exposure of 0.5-3 h, the duration in BLI augmentation (compared to no TTFields conditions) lasted about 5 min. However, at TTFields exposures of 12-25 h, this difference in BLI between TTFields and no TTFields conditions lasted for more than 20 min.
# U87-MG/eGFP-fLuc cells [5] = assay: Reversibility of the TTFields effect on uptake (BLI, PpIX, Dextran-FITC fluorescence); format: cell-based, human; conditions: TTFields 24 h vs. none vs. TTFields 24 h followed by 24 h no TTFields
# Excerpt: All experimental conditions were done in triplicate.
# [6] = system: U87-MG GBM on PCS-201 fibroblast co-cultures; assay: 5-ALA uptake (PpIX fluorescence) in U87-MG GBM on PCS-201 fibroblast co-cultures
# U87-MG cells [7] = assay: 5-ALA uptake measured by PpIX fluorescence, single U87-MG culture; format: cell-based, human
# Protocol: Experiments were performed to determine the effects of TTFields on uptake of 5-ALA (as measured by PpIX accumulation and its resultant fluorescence) in glioblastoma cells. Because it is difficult to distinguish the margin between tumor and normal cells using the present 5-ALA bioassay, the measurement of PpIX fluorescence was used to address this issue. Investigations were run to determine whether permeation of 5-ALA through the cellular membrane and into the glioblastoma cells could be increased with TTFields exposure. U87-MG cells were exposed or unexposed to TTFields, each for durations of 6-24 h.
# All monovariant statistical comparisons between no TTFields vs. TTFields samples done by Student's t-test for n=3 experiments per time point.
# U87-MG/eGFP-fLuc cells [8] = conditions: TTFields 4 V/cm, 200 kHz, 0.5-24 h vs. no TTFields
# Protocol: U87-MG/eGFP-fLuc cells were seeded on Thermanox glass coverslips, allowed to settle and grow, and then subjected to either TTFields or no TTFields.
# The coverslips were transferred to a ceramic dish of the Inovitro™ system, which in turn was mounted onto Inovitro™ base plates (Novocure Ltd., Haifa, Israel). Tumor treating fields at 200 kHz (1-4 V/cm) were applied through an Inovitro™ power generator. Incubator ambient temperatures spanned 20-27° C. with a target temperature of 37° C. in the ceramic dishes upon application of the TTFields. Duration of TTFields exposure lasted anywhere from 0.5 to 72 h, after which coverslips were removed and processed for the appropriate bioassays (see below). For reversibility experiments, the TTFields-exposed coverslips were transferred to a regular incubator without TTFields exposure for 24 h (off TTFields period to assess for reversibility of the TTFields effect on cell membrane permeability) prior to processing for the appropriate bioassays. Culture media were exchanged manually every 24 h throughout the experiments to account for evaporation. Corresponding control experiments (no TTFields) were done by placing equivalent coverslips within 6-well or 12-well plates into a conventional humidified tissue culture incubator (37° C., 95% air/5% CO2) and cells grown in parallel with the TTFields-exposed coverslips. […]
# KR158B = assay: Bioluminescence of Renilla luciferase-expressing astrocytoma cells, TTFields vs. no TTFields; format: cell-based, murine
# Protocol: Studies were then performed that validate the hypothesis.
# Renilla luciferase activity is not dependent upon ATP and magnesium (as opposed to firefly luciferase). Thus, it is believed that the induction of bioluminescence by TTFields was not due to alterations in endogenous pools of ATP.
# [9] = system: MDA-MB-435 human melanoma cell line cells; assay: Permeability to 7-AAD under alternating electric fields, flow cytometry; format: cell-based; conditions: 150 kHz, 24 h
# Protocol: After this 15 minute period, alternating electric field application was terminated and the cells were incubated at room temperature for an additional 15 minutes.
# After this 24 hour period, the alternating electric fields were turned off for 15 minutes, after which the 7-AAD was added. After waiting an additional 15 minutes, the percentage of cells with increased accumulation of the fluorescent 7-AAD was determined using flow cytometry.
# U87-MG cells [10] = assay: Timing of permeability to 7-AAD after cessation of the field, flow cytometry; format: cell-based, human; conditions: 300 kHz, 1.62 V/cm RMS, 24 h; 7-AAD added 15 minutes prior to cessation of the field
# Protocol: FIG. 7D depicts the results of an experiment to test how quickly the permeability drops back down after cessation of the alternating electric fields. More specifically, 7-Aminoactinomycin D (7-AAD) is a fluorescent chemical compound with a strong affinity for DNA. […] 7-AAD was introduced into samples at five different times: 15 minutes prior to the cessation of the alternating electric field; immediately after cessation of the alternating electric field; and 15, 30, and 60 minutes after cessation of the alternating electric field. In each case, the cells were incubated with 7-AAD for 30 minutes after introduction of the 7-AAD, followed by flow cytometry analysis of the percentage of cells with increased accumulation of the fluorescent 7-AAD for each of the different timings.
# firefly luciferase = biological target: T1, firefly luciferase (Photinus pyralis, UniProt P08659); assay: Activity of purified firefly luciferase exposed to TTFields; format: biochemical; conditions: TTFields vs. no TTFields, p<0.01
# T1 construct: purchased Sigma Aldrich Inc SRE0045-2MG
# T1 sequence (P08659 whole entry): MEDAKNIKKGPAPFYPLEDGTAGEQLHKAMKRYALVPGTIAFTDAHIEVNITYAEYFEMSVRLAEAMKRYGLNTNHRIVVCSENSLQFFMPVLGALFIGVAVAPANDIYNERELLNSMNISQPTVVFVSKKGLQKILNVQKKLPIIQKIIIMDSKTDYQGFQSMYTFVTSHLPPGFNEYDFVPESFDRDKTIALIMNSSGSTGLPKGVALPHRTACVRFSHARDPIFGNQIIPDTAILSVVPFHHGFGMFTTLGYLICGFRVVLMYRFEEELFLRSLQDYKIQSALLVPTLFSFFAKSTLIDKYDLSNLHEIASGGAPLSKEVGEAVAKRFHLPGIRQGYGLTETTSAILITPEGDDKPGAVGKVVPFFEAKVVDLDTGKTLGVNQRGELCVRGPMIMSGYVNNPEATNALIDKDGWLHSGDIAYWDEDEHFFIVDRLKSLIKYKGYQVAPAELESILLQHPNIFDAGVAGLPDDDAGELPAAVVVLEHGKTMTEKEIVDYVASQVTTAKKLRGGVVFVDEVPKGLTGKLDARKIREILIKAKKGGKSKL
molecule,measurement,setting,value
O=C1c2c(O)ccc(O)c2C(=O)c2c(NCCNCCO)ccc(NCCNCCO)c21 [mitoxantrone],intracellular accumulation,[1],increased
same,intracellular accumulation,"MCF-7 cells, wild type",increased
O=NN(CCCl)C(=O)NC1CCCCC1 [Lomustine],sensitivity of cells to the drug,pcGBM2/GFP-Luc cells,improves the sensitivity
same,sensitivity of cells to the drug,U87-MG/GFP-Luc cells,improves the sensitivity
same,sensitivity of cells to the drug,GBM39 cells,improves the sensitivity
CCc1c2c(nc3ccc(OC(=O)N4CCC(N5CCCCC5)CC4)cc13)-c1cc3c(c(=O)n1C2)COC(=O)[C@]3(O)CC [Irinotecan],sensitivity of cells to the drug,GBM39/Luc cells,improves the sensitivity
CC1=C(CO)C(=O)O[C@@H]([C@@H](C)[C@H]2CC[C@H]3[C@@H]4C[C@H]5O[C@]56[C@@H](O)C=CC(=O)[C@]6(C)[C@H]4CC[C@]23C)C1 [Withaferin A],growth inhibition in conjunction with TTFields,human glioblastoma cells,synergistically inhibited the growth
same,Annexin-V-APC binding (positive control for apoptosis),U87-MG/eGFP-fLuc cells [2],could be visualized
COc1cccc2c1C(=O)c1c(O)c3c(c(O)c1C2=O)C[C@@](O)(C(=O)CO)C[C@@H]3O[C@H]1C[C@H](N)[C@H](O)[C@H](C)O1 [doxorubicin],sensitivity of cells to the drug,MDA-MB-235 cells,improves the sensitivity
same,increase of intracellular accumulation,MES-SA cells,more than 2 ×
same,intracellular accumulation,[3],increased
same,intracellular accumulation,[4],increased
Cn1nnc2c(C(N)=O)ncn2c1=O [Temozolomide],percent increase in overall survival,glioblastoma patients,32%
"NCC(=O)CCC(=O)O [5-ALA, 5-aminolevulinic acid]",uptake with field and after cessation of the field,U87-MG/eGFP-fLuc cells [5],reversibly increase uptake
same,rate of PpIX fluorescence intensity increase,"[6]; TTFields 2, 6, 24 h vs. unexposed co-cultures, p<0.001",significantly augmented
same,tumor to normal cell ratio for PpIX fluorescence,[6]; TTFields vs. no TTFields,significantly enhances
same,uptake (PpIX fluorescence),"U87-MG cells [7]; 6 h TTFields (200 kHz) vs. no TTFields, p=0.047",significantly increased uptake
same,uptake (PpIX fluorescence),"U87-MG cells [7]; 24 h TTFields (200 kHz) vs. no TTFields, p=0.011",increase was maintained
O=C(O)[C@H]1CSC(c2nc3ccc(O)cc3s2)=N1 [D-luciferin],permeation of the luciferase substrate through the plasma membrane (bioluminescence),U87-MG/eGFP-fLuc cells [8],increased permeation
same,uptake with field and after cessation of the field,U87-MG/eGFP-fLuc cells [5],reversibly increase uptake
Oc1ccc(Cc2nc3c(Cc4ccccc4)nc(-c4ccc(O)cc4)cn3c2O)cc1 [coelenterazine],permeation of the luciferase substrate through the plasma membrane (bioluminescence),KR158B,increased permeation
"Cc1c2oc3c(C)c(N)cc(C(=O)N[C@@H]4C(=O)N[C@H](C(C)C)C(=O)N5CCC[C@H]5C(=O)N(C)CC(=O)N(C)[C@@H](C(C)C)C(=O)O[C@@H]4C)c3nc-2c(C(=O)N[C@@H]2C(=O)N[C@H](C(C)C)C(=O)N3CCC[C@H]3C(=O)N(C)CC(=O)N(C)[C@@H](C(C)C)C(=O)O[C@@H]2C)c(N)c1=O [7-AAD, 7-Aminoactinomycin D]",percentage of cells with increased accumulation of 7-AAD,"[9]; 1.62V/cm, 7-AAD added 15 minutes after fields turned off",~20%
same,percentage of cells with increased accumulation of 7-AAD,"[9]; 1.62 V/cm, 7-AAD added for the last 15 minutes of the field",~66%
same,percentage of cells with increased accumulation of 7-AAD,U87-MG cells [10],significant increase in accumulation
firefly luciferase: purified firefly luciferase (SRE0045-2MG) purchased from Sigma Aldrich,activity of purified firefly luciferase,firefly luciferase,significantly decreased activity
